Measurements as given in patent publication US20250302968A1, “RADIATION CLEAVED DRUG-CONJUGATE LINKERS ENABLE LOCAL PAYLOAD RELEASE SCLEROSIS” (The General Hospital Corporation, priority 2022, published 2025).
Read-outs that look alike come from different tables or passages of the source. Where a SMILES comes first, the peptide text is derived from it. [ ]: non-standard residue; d: D form. The star is where a group is joined. Dolaproine = CO[C@@H]([C@@H]1CCCN1)[C@@H](C)C(=O)O; Dil = CC[C@H](C)[C@H](NC)[C@@H](CC(=O)O)OC; X1 = C[C@@H](N*)[C@@H](O)c1ccccc1; NMeV = CN[C@H](C(=O)O)C(C)C

Key:
[1] = system: 8505c (human anaplastic thyroid cancer); test: Cytotoxicity assay, 72 hour incubation, PrestoBlue (resazurin-based); assay type: cell-based; settings: for IC50: Homo sapiens
Experimental: Experiments with cancer cells were performed to assess the degree to which the disclosed linker strategy shields biological activity of the drug payload under un-irradiated conditions, and restore drug activity once irradiated.
All cells were routinely evaluated for mycoplasma contamination and cultured following provider guidelines using 10% FBS (Bio-Techne Sales), 100 IU mL-1 penicillin, 100 μg mL-1 streptomycin (Invitrogen), with incubation at 37° C. and 5% CO2. Cytotoxicity experiments were performed by seeding 5,000 cells per well overnight in a 96-well plate (Corning) before the addition of each drug/conjugate. Empty wells with only media or vehicle-treated cells were used as controls. After addition of the corresponding drugs and a 72 hour incubation, the number of live cells was determined by PrestoBlue (ThermoFisher, USA) staining according to the provider's protocols.

[2] = Stability of prodrugs in PBS at 37° C., LC-MS; assay type: physicochemical; settings: buffer
Experimental: Prodrugs were prepared to concentrations of 10 μM in PBS (pH 7.4, <2% DMF) and incubated at 37° C. to determine the relative stability under physiological conditions (FIG. 14). Aliquots of these solutions were removed after varying time intervals and analyzed via LC-MS on a Waters 3100 Mass Detector with an Xterra MS C18 Column to measure the amount of each prodrug remaining in solution. All measurements were made in triplicate and analyzed in Graphpad Prism to determine the half-lives (991, 257, and 2252 hours were determined for compounds 8, 9, and 10 respectively).

8505c cell line = test: Subcellular localization of DOX by intrinsic fluorescence imaging; assay type: cell-based, human; settings: ATC cells (8505c)
Experimental: Subcellular localization of DOX in the 8505c cell line was measured using a modified BX63 (Olympus) inverted microscopy system equipped with an environmental chamber and robotic stage. DOX images were collected using a 40× air objective (PLAPO 40×/0.95 numerical aperture), with excitation and emission wavelengths of 489 nm and 508 nm, respectively. All images were processed using cellSens Dimension 3.1.1 (Olympus, USA) and ImageJ 1.53k (NIH, USA) software. Nuclear to cytoplasm fluorescence ratios were calculated and plotted using Excel (Microsoft) and Prism (GraphPad). 20 μM concentration of free (or released) DOX was used, and unirradiated prodrug used the same total (caged and uncaged) DOX concentration as used in the irradiated sample. Following treatment for 72 hours, live cells were immediately imaged by confocal microscopy.

[3] = Drug payload stability after X-ray irradiation, LC/MS chromatograph analysis; assay type: physicochemical; settings: 8 Gy X-ray irradiation, 100 uM in PBS, degassed
Experimental: FIG. 5. Illustrates drug payload stability after X-ray irradiation. […] Both drug solutions were prepared to a concentration of 100 uM in PBS and analyzed before and after irradiation. MMAE chromatographs were obtained via ELSD and DOX chromatographs were obtained via UV absorbance scan (200-800 nm).
No difference in cleavage efficiency was found between gamma irradiation from a sealed 137Cs source (primarily 662 keV photons at a dose rate of roughly 0.5 Gy/min), and X-ray irradiation (from a 4000 W tube generating 320 keV photons at 3 Gy/min), and little background release was observed under un-irradiated conditions (FIG. 4).

[4] = system: Bone marrow-derived macrophages (BMDM) from IL12-eYFP reporter mice; test: Cellular immunostimulation of BMDM (p-NFkB and IL12-eYFP fluorescence); assay type: cell-based; settings: 100 nM, 48 hours
Experimental: Bone marrow-derived macrophages (BMDM) were generated from IL12-eYFP reporter mice by dissecting the femurs, flushing out the bone marrow, and culturing isolate with M-CSF supplemented growth media (Luthria G, et al. Nat Commun. 2020; 11:3521]. BMDM were plated in a 96 well plate at a concentration of 5,000 cells per well. These wells were then treated with either free gardiquimod, pATFB-SIL-Mal-Gard (13), or prodrug 13 that had been treated with 10 μM tris(2-carboxyethyl) phosphine) to chemically release the free gardiquimod (all drugs at a concentration of 100 nM). The cells were then incubated for 48 hours then fixed with 4% PFA and stained with Phospho-NF-κB p65 (Ser536) (93H1) Rabbit mAb and AF647 Goat anti-Rabbit IgG. Images were captured on a modified BX63 (Olympus) inverted microscopy system equipped with an environmental chamber and robotic stage, using excitation/emission wavelengths of 513/527 and 640/670 for eYFP and Cy5, respectively. The images were then quantified using ImageJ software (NIH, USA) to determine relative protein expression.

[5] = 10 μM in PBS (pH 7.4, <2% DMF), 37° C., read-out: half-life (converted)

COC(=O)C(OC(=O)N[C@@H]1C[C@@H](O[C@H]2C[C@](O)(C(=O)CO)Cc3c(O)c4c(c(O)c32)C(=O)c2c(OC)cccc2C4=O)O[C@H](C)[C@H]1O)c1ccc(NC(=O)OCc2cc(OC)cc(OC)c2)cc1 (some centres unmarked) [DMBA-SIL-DOX]
IC50 ([1]; 8505C, light or radiation study, read-out: concentration at which drug inhibited 50% of ATC cell growth): > 10000 nM
fold higher IC50 than that observed for the parent drug ([1]; un-irradiated, 8505c ATC cells): roughly 100 fold

CC[C@@H](C)[C@H]([C@H](CC(=O)N1CCC[C@@H]1[C@@H](OC)C(C)C(=O)N[C@@H](C)[C@H](O)c1ccccc1)OC)N(C)C(=O)[C@H](CC(=O)[C@H](C(C)C)N(C)C(=O)OC(C(=O)OC)c1ccc(NC(=O)OCc2c(F)c(F)c(N=[N+]=[N-])c(F)c2F)cc1)C(C)C (some centres unmarked) [Compound 8]
half-life at 10 μM [2, 5]: 41.3 days

COc1cccc2c1C(=O)c1c(O)c3c(c(O)c1C2=O)C[C@@](O)(C(=O)CO)C[C@@H]3O[C@H]1C[C@H](N)[C@H](O)[C@H](C)O1 [doxorubicin]
IC50 ([1]; 8505c ATC cells, read-out: IC50 of parent drug): 94 nM
subcellular distribution of DOX fluorescence, free drug (8505c cell line): nuclear accumulation
effect of irradiation on the drug payload itself [3]: Neither MMAE nor doxorubicin themselves were substantially affected

CC[C@H](C)[C@@H]([C@@H](CC(=O)N1CCC[C@H]1[C@H](OC)[C@@H](C)C(=O)N[C@H](C)[C@@H](O)c1ccccc1)OC)N(C)C(=O)[C@@H](NC(=O)[C@@H](NC)C(C)C)C(C)C [MMAE, monomethyl auristatin E] (H-[NMeV]V[Dil][Dolaproine]-X1)
effect of irradiation on the drug payload itself [3]: Neither MMAE nor doxorubicin themselves were substantially affected

COC(=O)C(OC(=O)N[C@H]1C[C@H](O[C@H]2C[C@](O)(C(=O)CO)Cc3c(O)c4c(c(O)c32)C(=O)c2c(OC)cccc2C4=O)O[C@@H](C)[C@H]1O)c1ccc(NC(=O)OCc2c(F)c(F)c(N=[N+]=[N-])c(F)c2F)cc1 (some centres unmarked) [Compound 9]
half-life at 10 μM [2, 5]: 10.7 days

CCN(Cc1nc2c(N)nc3ccccc3c2n1CC(C)(C)O)C(=O)OC(C(=O)OC)c1ccc(NC(=O)OCc2c(F)c(F)c(N=[N+]=[N-])c(F)c2F)cc1 (centres unmarked) [Compound 10]
immunostimulatory behavior compared to free gardiquimod, caged [4]: attenuated immunostimulatory behavior
immunostimulatory activity after chemical uncaging ([4]; prodrug treated with 10 μM TCEP): restores the immunostimulatory activity
half-life at 10 μM ([2]; pH 7.4): 93.8 days
